Columns and labels:
[1] = system: DU-145 (prostate carcinoma cell lines); assay: In vitro binding/uptake of ^125I-labelled FROP-1 by DU-145 cells; details: ^125I-labelled FROP-1, about 1 x 10^6 cpm per well, 1 hour, RPMI 1640 without FCS and BSA
Protocol: (§1) • (A) Mice: Female 6-week-old BALB/c nu/nu mice were obtained from Charles River WIGA (Sulzfeld, Germany) and housed in VentiRacks. For inoculation of the tumors in nude mice a Matrigel-matrix/cell suspension (5×10^6 cells) was injected subcutaneously into the anterior region of the mouse trunk. Tumors were grown up to a size of approximately 1.0 cm^3. All animals were cared for according to the German animal guidelines. • (B) Peptide synthesis and labeling: The FROP-1-Peptide (EDYELMDLLAYL) was obtained by solid-phase peptide synthesis using Fmoc-chemistry. The radiolabeling was achieved by iodination using the chloramine-T method (33). […] The solution was centrifuged 5 min at 13,000 rpm and the cleared lysate was analyzed by HPLC. • (D) In vitro binding assay: 300,000 cells were seeded into 6-well plates and cultivated for 24 hours. […] Radioactivity was determined with a gamma counter and calculated as percent applied dose per 10^6 cells. […] The organs were removed, weighed and the radioactivity was determined using an automated NaI(Tl) well counter (CobraII, Canberra Packard, Meriden, USA). The percentage of injected dose per gram of tissue was calculated.
(§2) 2 x 10^5 cells of various tumor cell lines were seeded into 6-well plates. […] The radioactivity of lysed cells was determined with a gamma counter. […]

[2] = system: HeLa cells (cervix carcinoma cell line); assay: In vitro binding/uptake of ^125I-labelled FROP-1 by HeLa cells; details: ^125I-labelled FROP-1, about 1 x 10^6 cpm per well, 1 hour, RPMI 1640 without FCS and BSA
Protocol: as §1, §2

various tumor cell lines = assay: Competition of ^125I-labelled FROP-1 uptake by unlabelled FROP-1, various tumor cell lines; type: binding; details: in the presence of 10^-4 unlabelled FROP-1 as a competitor, 1 hour
Protocol: as §1, §2

[3] = system: PC-3 (prostate carcinoma cell lines); assay: In vitro binding/uptake of ^125I-labelled FROP-1 by PC-3 cells; details: ^125I-labelled FROP-1, about 1 x 10^6 cpm per well, 1 hour, RPMI 1640 without FCS and BSA
Protocol: as §1, §2

[4] = system: FRO82-2 cells (follicular thyroid cancer cell line); assay: In vitro binding/uptake of ^125I-labelled FROP-1 by FRO82-2 cells; set-up: species or system human; details: ^125I-labelled FROP-1, about 1 x 10^6 cpm per well, 1 hour, RPMI 1640 without FCS and BSA
Protocol: as §1, §2

FRO82-2 tumor = assay: Organ distribution in tumor-bearing nude mice; type: in vivo, Balb/c nu/nu mice; details: summary statement; ^131I-FROP-1 i.v., values only in Figure 6
Protocol: as §1, with “(33). The labeled peptide was purified by HPLC on a LiChrosorb RP-select B 5 µm, 250 ×x 4 mm column (Merck, Darmstadt, Germany) using TRIS/phosphate and methanol as eluents.” for “(33).”, “calculated. […]” for “calculated.”

[5] = system: MCF-7 cells (mamma carcinoma cell line); assay: In vitro binding/uptake of ^125I-labelled FROP-1 by MCF-7 cells; details: ^125I-labelled FROP-1, about 1 x 10^6 cpm per well, 1 hour, RPMI 1640 without FCS and BSA
Protocol: as §1, §2

For “FROP-1: novel 12 amino acid peptide from phage display, aa sequence EDYELMDLLAYL”, the “binding of FROP-1 to DU-145” value [1] was “efficient binding”, the “binding of FROP-1 to HeLa cells” value [2] was “efficient binding” and the “binding can be competed” value (various tumor cell lines) was 95%. The “binding of FROP-1 to PC-3” value [3] was “efficient binding”, the “binding of FROP-1 to FRO82-2 cells” value [4] was “efficient binding” and the “accumulation in tumors in vivo” value (FRO82-2 tumor) was “accumulates in vivo at/in tumors”. For the same substance, the “binding of FROP-1 to MCF-7 cells” value [5] was “efficient binding”.

— patent EP1714978A1, “Peptides useful for diagnosis and therapy of tumors” (Deutsches Krebsforschungszentrum Stiftung des öffentlichen …, priority 2005, dated 2006)
